Assays:
[1] = molecular target: Tyrosine-protein kinase JAK2 (Homo sapiens, UniProt O60674); design: species or system Sf21
[2] = molecular target: T1, Tyrosine-protein kinase JAK3 (Homo sapiens, UniProt P52333)
T1 sequence (P52333 whole entry): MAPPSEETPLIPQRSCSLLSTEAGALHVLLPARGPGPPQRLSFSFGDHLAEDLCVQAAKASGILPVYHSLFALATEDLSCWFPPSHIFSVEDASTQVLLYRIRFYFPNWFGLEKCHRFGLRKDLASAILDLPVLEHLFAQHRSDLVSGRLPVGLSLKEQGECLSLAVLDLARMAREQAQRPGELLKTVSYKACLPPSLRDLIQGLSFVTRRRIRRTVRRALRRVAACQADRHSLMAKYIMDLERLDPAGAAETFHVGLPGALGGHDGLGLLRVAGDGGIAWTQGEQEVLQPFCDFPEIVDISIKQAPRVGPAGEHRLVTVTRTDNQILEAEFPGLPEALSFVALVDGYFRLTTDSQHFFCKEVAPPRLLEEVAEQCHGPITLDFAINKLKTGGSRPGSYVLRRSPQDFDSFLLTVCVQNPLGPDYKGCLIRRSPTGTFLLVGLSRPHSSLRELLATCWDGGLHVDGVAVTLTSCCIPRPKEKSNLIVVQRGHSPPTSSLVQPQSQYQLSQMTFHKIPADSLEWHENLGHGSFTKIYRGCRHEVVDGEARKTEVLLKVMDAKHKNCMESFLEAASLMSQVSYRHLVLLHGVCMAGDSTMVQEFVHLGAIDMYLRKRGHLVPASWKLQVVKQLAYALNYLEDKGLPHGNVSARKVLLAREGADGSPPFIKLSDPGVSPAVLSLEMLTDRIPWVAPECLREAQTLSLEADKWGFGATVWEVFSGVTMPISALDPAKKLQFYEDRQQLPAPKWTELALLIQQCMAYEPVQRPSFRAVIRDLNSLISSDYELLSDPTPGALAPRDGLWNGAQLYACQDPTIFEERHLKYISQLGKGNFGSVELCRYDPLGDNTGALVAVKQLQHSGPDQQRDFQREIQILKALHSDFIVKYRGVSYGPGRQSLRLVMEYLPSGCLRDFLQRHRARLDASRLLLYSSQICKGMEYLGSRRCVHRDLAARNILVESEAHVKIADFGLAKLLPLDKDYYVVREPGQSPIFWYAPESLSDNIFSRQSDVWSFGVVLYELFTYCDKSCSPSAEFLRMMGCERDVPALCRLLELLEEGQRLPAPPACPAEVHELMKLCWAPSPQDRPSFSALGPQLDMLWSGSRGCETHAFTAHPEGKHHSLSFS

[3] = molecular target: Tyrosine-protein kinase JAK1 (Homo sapiens, UniProt P23458)
Chain of Tyrosine-protein kinase JAK1 (P23458 whole entry): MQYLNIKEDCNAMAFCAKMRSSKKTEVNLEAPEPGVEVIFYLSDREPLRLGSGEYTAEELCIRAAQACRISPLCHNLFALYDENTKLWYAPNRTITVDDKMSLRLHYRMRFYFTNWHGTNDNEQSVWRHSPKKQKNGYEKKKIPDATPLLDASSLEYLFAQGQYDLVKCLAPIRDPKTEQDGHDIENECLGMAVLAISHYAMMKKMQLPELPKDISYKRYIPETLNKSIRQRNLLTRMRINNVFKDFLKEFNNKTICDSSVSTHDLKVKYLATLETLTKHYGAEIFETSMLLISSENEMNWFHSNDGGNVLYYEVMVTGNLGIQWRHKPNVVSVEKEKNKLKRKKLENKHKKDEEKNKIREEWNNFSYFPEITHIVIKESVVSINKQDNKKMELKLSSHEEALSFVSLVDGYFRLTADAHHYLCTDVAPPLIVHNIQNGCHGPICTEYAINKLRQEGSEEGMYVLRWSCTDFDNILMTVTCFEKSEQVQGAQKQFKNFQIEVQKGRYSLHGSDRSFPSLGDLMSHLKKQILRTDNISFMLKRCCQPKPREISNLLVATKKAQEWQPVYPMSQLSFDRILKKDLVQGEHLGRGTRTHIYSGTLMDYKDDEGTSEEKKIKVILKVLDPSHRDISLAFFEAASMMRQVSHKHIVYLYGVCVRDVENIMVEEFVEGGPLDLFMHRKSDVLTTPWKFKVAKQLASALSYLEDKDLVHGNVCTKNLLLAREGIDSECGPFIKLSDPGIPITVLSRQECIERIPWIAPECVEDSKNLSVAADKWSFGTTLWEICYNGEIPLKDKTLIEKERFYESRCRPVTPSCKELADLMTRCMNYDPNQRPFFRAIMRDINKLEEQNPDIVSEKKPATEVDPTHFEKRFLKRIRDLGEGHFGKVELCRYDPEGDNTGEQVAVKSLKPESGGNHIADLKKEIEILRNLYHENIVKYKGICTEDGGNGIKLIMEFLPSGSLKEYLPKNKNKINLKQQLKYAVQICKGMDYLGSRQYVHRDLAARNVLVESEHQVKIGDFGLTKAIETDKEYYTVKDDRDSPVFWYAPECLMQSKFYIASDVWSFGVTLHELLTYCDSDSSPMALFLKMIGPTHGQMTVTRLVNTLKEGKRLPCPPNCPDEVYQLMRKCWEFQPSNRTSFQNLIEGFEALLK

Chain of Tyrosine-protein kinase JAK2 (O60674 whole entry): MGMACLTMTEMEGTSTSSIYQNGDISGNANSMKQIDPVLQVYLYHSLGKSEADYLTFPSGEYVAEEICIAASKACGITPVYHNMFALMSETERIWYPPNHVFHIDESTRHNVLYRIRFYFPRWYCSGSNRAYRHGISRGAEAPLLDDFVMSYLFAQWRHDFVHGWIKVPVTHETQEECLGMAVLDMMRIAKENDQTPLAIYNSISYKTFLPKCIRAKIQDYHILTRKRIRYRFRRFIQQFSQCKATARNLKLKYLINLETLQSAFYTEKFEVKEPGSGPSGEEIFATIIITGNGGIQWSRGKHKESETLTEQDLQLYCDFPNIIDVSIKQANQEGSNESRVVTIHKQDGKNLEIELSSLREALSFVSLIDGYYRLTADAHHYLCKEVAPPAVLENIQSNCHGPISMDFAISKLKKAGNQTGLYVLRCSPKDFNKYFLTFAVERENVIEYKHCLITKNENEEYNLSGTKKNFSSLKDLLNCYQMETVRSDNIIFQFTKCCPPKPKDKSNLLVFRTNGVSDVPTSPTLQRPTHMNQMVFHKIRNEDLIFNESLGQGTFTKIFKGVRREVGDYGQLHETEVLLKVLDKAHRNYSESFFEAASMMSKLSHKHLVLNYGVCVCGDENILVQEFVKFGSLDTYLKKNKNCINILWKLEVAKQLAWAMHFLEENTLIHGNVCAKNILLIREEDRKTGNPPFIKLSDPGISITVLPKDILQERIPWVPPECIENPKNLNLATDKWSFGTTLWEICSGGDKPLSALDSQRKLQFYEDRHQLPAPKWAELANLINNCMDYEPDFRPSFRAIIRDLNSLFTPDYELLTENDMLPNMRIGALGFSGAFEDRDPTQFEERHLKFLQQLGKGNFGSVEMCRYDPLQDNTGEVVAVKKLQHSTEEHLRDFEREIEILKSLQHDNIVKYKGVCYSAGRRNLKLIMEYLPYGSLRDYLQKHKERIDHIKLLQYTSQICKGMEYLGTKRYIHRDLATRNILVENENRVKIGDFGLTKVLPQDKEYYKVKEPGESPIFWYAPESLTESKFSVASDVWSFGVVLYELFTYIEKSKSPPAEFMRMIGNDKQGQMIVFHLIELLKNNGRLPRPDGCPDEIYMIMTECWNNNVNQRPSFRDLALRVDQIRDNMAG

IC50 [1]: 98 nM
IC50 [2]: 39 nM
IC50 [3]: 670 nM
SMILES: CNc1nc(Nc2cnn(C(CC(N)=O)C3CCCCC3)c2)ncc1C(F)(F)F (stereo not drawn)

Source: ChEMBL document CHEMBL3797141, “Design, synthesis and preliminary biological evaluation of 4-aminopyrazole derivatives as novel and potent JAKs inhibitors” (Bioorg Med Chem, 2016)
